Experimental data: patent US6703362B1, “Random peptides that bind to gastro-intestinal tract (GIT) transport receptors and related methods” (Cytogen Corporation, priority 1997, dated 2004)
Square brackets hold non-standard residues; d marks the D form. Peptide text beside a SMILES is read from it. * marks the point of attachment. Dansyl = CN(C)c1cccc2c(S(=O)(=O)*)cccc12

Tests used:
fixed Caco-2 cells [1] = assay: Inhibition of GST-peptide fusion binding to fixed Caco-2 cells by synthetic peptides; settings: peptide from 100 μg/ml serially diluted; GST fusion 10 μg
From the text: Caco-2 cells were fixed, treated with phenylhydrazine and blocked as described above. […] GST-PAX2 binding was inhibited by ZElan032, ZElan033, and ZElan035.

[2] = Peptide stability in simulated intestinal fluid (SIF); format: in vitro ADME; settings: for Rel. Stab.: rank, 1 = most stable to SIF; for remaining at 1 min, 1 mg/ml / remaining at 1 h, 1 mg/ml / remaining at 3 h, 1 mg/ml / remaining at 24 h, 1 mg/ml: simulated intestinal fluid (pancreatin), pH 7.5, 10,000 fold diluted SIF, 37° C.; for remaining at 1 min, 1 mg/ml: read-out: Percent Remaining at: 1 m; for remaining at 1 h, 1 mg/ml: read-out: Percent Remaining at: 1 h; for remaining at 3 h, 1 mg/ml: read-out: Percent Remaining at: 3 h; for remaining at 24 h, 1 mg/ml: read-out: Percent Remaining at: 24 h
Description: The relative stability for ZElanO3l, ZElanO53 and ZElan054 was determined in simulated intestinal fluid (SIF) SIF was made by dissolving 100 mg of pancreatin (Sigma cat#P-1625, lot# 122H0812)in 8.4 ml of phosphate stock solution, adjusting the pH to 7.5 with 0.2N NaOH and adjusting the volume to 10 ml with water.
Peptide (3.25 mg) was dissolved in 3.25 ml of 10,000 fold diluted SIF solution at 37° C. Aliquots (0.7 ml) of the digestion solution were then withdrawn at <1 min, 1 h, 3 h, and 21 h or 24 h. The samples were quickly passed through a syringe filter (Millipore Millex-GV 0.22 μm, part# SLGV025LS, lot# H2BM95250) and 300 μL of the filtered solution was immediately injected onto a Hewlett-Packard HPLC system equipped with a C-8 column (Applied Biosystems column and guard column: column-p/n 0711-0023 Spheri-5 ODS 5 μm, 220×4.6 mm). The products were eluted at 1.5 ml/min using an acetonitrile-water gradient. The major fluorescent peaks were collected, lyopholized and identified by MS analysis.

[3] = test system: P100 membrane fractions derived from Caco-2 cells; assay: Dansylated peptide ELISA: relative binding of PAX2 and HAX42 peptides to P100 (ratio to ZElan021); settings: PAX2 peptides, ratio to ZElan021 = 1.00
Description: (§1) The peptides and proteins were analyzed by a dansylated peptide ELISA method in which 96 well plates were coated overnight at 4° C. with 100 μl/well coating protein (normally 100 μg/ml P100 membrane fraction) in 0.05M carbonate buffer pH9.6. Nonspecific binding was blocked using 200 μl/well, 2% Marvel/PBS for 2 hours at 37° C. prior to incubation with dansylated peptides. The plates were washed three times with PBS/0.05% Tween 20 and after each subsequent incubation step. […] A buffer blank control was included to ensure that background binding to plastic was not due to the antibodies used in the assay system. […] The plates were then incubated with an anti-mouse X-HRP conjugated antibody (Southern Biotech 1060-05) at a 1:10,000 dilution in blocking solution, 100 μl/well for 1 hour at room temperature. Plates were developed using 75 μl/well Bionostics TMB substrate and incubated for approximately 10 minutes. The developing reaction was stopped using Bionostics Red Stop solution (25 μl/well), and the optical density of the plates was read at 650nm.

intestinal tissue = assay: Preselected phage libraries, rat closed loop: absorption/internalization to intestinal tissue (hybridization autoradiograph); format: in vivo
[4] = Isoelectric points of synthetic peptides; format: physicochemical
[5] = test system: fixed Caco-2 or C2BBe1 cells; assay: ELISA of GST fusion proteins on fixed Caco-2 or C2BBe1 cells; format: binding
Description: Fixed Caco-2, C2BBe1, and A431 cell plates were prepared by growing cells on tissue culture treated microtiter plates. When cells were confluent, plates were fixed with 10% formaldehyde, washed twice with PBS and stored with 0.5%BSA-PBS at −20° C. […] The standard ELISA procedure was followed at this point.
The standard ELISA procedure was modified as follows. GST proteins were diluted to an appropriate concentration in PBS containing lkBSA and 0.05% Tween20 (1%BPT), titered and incubated one hour at room temperature. Following five washes an anti-GST monoclonal antibody was added (Sigma, St. Louis Clone GST-2 diluted 1:10,000 in 1%BPT) and incubated one hour. After five more washes goat anti-mouse IgG2b-HRP was added (Southern Biotechnology Associates Inc., Birmingham, Ala., diluted 1:4000 in 1%BPT) and incubated one hour. After five washes plates were developed with TMB peroxidase substrate (Kirkegard and Perry, Gaithersburg, Md.). All data is presented with background binding subtracted.

fixed Caco-2 cells [6] = assay: Effect of thrombin cleavage on binding of GST-peptide fusions to fixed Caco-2 cells; settings: thrombin 18 h at room temperature
Description: Binding of intact and thrombin-cleaved GST-peptide fusions to fixed Caco-2 cells was compared.
Thirty micrograms of each GST-peptide was treated with bovine thrombin (1 μ/ml; 0.4 NIH units; Sigma CN.T9681) for 18 h at room temperature in 2OmM Tris-HCl pH8.0, 150 mM NaCl, 2.5 mM CaCl2. Controls were similarly treated without addition of thrombin. Ten micrograms of each GST-peptide fusion was removed for PAGE analysis, and 10 μg of fusions were added in duplicate to the fixed Caco-2 cells before 5-fold serial dilutions (1% BPT diluent). The fusions were allowed to bind for 1 h at room temperature. Following 6 washes with 1% BPT, binding was assayed by ELISA.

[7] = test system: P100 membrane fraction derived from Caco-2 cells; assay: GST-PAX2 peptides relative binding to P100 fractions (ratio to GST-HAX42); settings: 20 μg/ml GST-peptide; binding to plastic subtracted; GST-HAX42 = 1.00
Description: as §1
After subtraction of the GST-peptide binding to plastic from P100 binding values, the binding of GST-PAX2 peptides were represented as a ratio of GST-HAX42 binding to P100, which was given the arbitrary value of 1.00. The following ratios were determined from binding to P100 of GST-peptides at a peptide concentration of 20 μg/ml. Bold denotes positive binding to the P100 membrane fraction.

Compound: C[C@@H](O)[C@H](NC(=O)[C@@H](N)CCCCNS(=O)(=O)c1cccc2c(N(C)C)cccc12)C(=O)N[C@@H](CCCNC(=N)N)C(=O)N[C@@H](CCCCN)C(=O)N[C@@H](CO)C(=O)N[C@@H](CO)C(=O)N[C@@H](CCCNC(=N)N)C(=O)N[C@@H](CO)C(=O)N[C@@H](CC(N)=O)C(=O)N1CCC[C@H]1C(=O)N[C@@H](CCCNC(=N)N)C(=O)NCC(=O)N[C@@H](CCCNC(=N)N)C(=O)N[C@@H](CCCNC(=N)N)C(=O)N[C@@H](Cc1c[nH]cn1)C(=O)N1CCC[C@H]1C(=O)NCC(N)=O [ZElan031] (H-K(Dansyl)TRKSSRSNPRGRRHPG-NH2)
- inhibition of GST-P31 binding (fixed Caco-2 cells [1]): inhibited
- Rel. Stab. [2]: 3
- remaining at 1 min, 1 mg/ml [2]: 100%
- remaining at 1 h, 1 mg/ml [2]: 38.7%
- remaining at 3 h, 1 mg/ml [2]: 0%
- remaining at 24 h, 1 mg/ml [2]: 0%

Compound: CC(C)C[C@H](NC(=O)[C@H](CCCNC(=N)N)NC(=O)[C@H](CCCNC(=N)N)NC(=O)[C@H](CC(N)=O)NC(=O)[C@H](Cc1c[nH]cn1)NC(=O)[C@H](CO)NC(=O)[C@H](CO)NC(=O)[C@H](Cc1c[nH]cn1)NC(=O)[C@H](CCCCN)NC(=O)[C@H](C)NC(=O)[C@H](CC(N)=O)NC(=O)[C@@H](NC(=O)[C@@H](N)CCCCNS(=O)(=O)c1cccc2c(N(C)C)cccc12)[C@@H](C)O)C(=O)N[C@@H](CCCNC(=N)N)C(=O)N[C@H](C(=O)N[C@@H](CCCNC(=N)N)C(=O)N[C@@H](CO)C(=O)N[C@@H](CCCNC(=N)N)C(=O)N1CCC[C@H]1C(=O)N[C@@H](CC(N)=O)C(N)=O)[C@@H](C)O [ZElan032] (H-K(Dansyl)TNAKHSSHNRRLRTRSRPN-NH2)
- inhibition of GST-PAX2 binding (fixed Caco-2 cells [1]): inhibited
- Binding value at 20 μg/ml ([3]; first 20 μg/ml column): 1.43
- Binding value at 50 μg/ml ([3]; first 50 μg/ml column): 0.95
- Binding value at 20 μg/ml ([3]; second 20 μg/ml column): 2.87
- Binding value at 50 μg/ml ([3]; second 50 μg/ml column): 1.06

Compound: CC(C)C[C@H](NC(=O)[C@H](CCCNC(=N)N)NC(=O)[C@H](CCCNC(=N)N)NC(=O)[C@H](CC(N)=O)NC(=O)[C@H](Cc1c[nH]cn1)NC(=O)[C@H](CO)NC(=O)[C@H](CO)NC(=O)[C@H](Cc1c[nH]cn1)NC(=O)[C@H](CCCCN)NC(=O)[C@H](C)NC(=O)[C@H](CC(N)=O)NC(=O)[C@@H](NC(=O)[C@@H](N)CCCCNS(=O)(=O)c1cccc2c(N(C)C)cccc12)[C@@H](C)O)C(=O)N[C@@H](CCCNC(=N)N)C(=O)N[C@H](C(=O)N[C@@H](CCCNC(=N)N)C(N)=O)[C@@H](C)O [ZElan033] (H-K(Dansyl)TNAKHSSHNRRLRTR-NH2)
- inhibition of GST-PAX2 binding (fixed Caco-2 cells [1]): inhibited
- Binding value at 20 μg/ml ([3]; first 20 μg/ml column): 0.35
- Binding value at 50 μg/ml ([3]; first 50 μg/ml column): 0.80
- Binding value at 20 μg/ml ([3]; second 20 μg/ml column): 1.57
- Binding value at 50 μg/ml ([3]; second 50 μg/ml column): 0.66

Compound: CC(C)C[C@H](NC(=O)[C@H](CCCNC(=N)N)NC(=O)[C@H](CCCNC(=N)N)NC(=O)[C@H](CC(N)=O)NC(=O)[C@H](Cc1c[nH]cn1)NC(=O)[C@H](CO)NC(=O)[C@H](CO)NC(=O)[C@@H](N)CCCCNS(=O)(=O)c1cccc2c(N(C)C)cccc12)C(=O)N[C@@H](CCCNC(=N)N)C(=O)N[C@H](C(=O)N[C@@H](CCCNC(=N)N)C(N)=O)[C@@H](C)O [ZElan035] (H-K(Dansyl)SSHNRRLRTR-NH2)
- inhibition of GST-PAX2 binding (fixed Caco-2 cells [1]): inhibited
- Binding value at 20 μg/ml ([3]; first 20 μg/ml column): 0.12
- Binding value at 50 μg/ml ([3]; first 50 μg/ml column): 0.81
- Binding value at 20 μg/ml ([3]; second 20 μg/ml column): 0.43
- Binding value at 50 μg/ml ([3]; second 50 μg/ml column): 0.77

Compound: C[C@@H](O)[C@H](NC(=O)[C@@H](N)CCCCNS(=O)(=O)c1cccc2c(N(C)C)cccc12)C(=O)N[C@@H](CCCNC(=N)N)C(=O)N[C@@H](CCCCN)C(=O)N[C@@H](CO)C(=O)N[C@@H](CO)C(=O)N[C@H](CCCNC(=N)N)C(=O)N[C@@H](CO)C(=O)N[C@@H](CC(N)=O)C(=O)N1CCC[C@H]1C(=O)N[C@@H](CCCNC(=N)N)C(=O)NCC(=O)N[C@H](CCCNC(=N)N)C(=O)N[C@@H](CCCNC(=N)N)C(=O)N[C@@H](Cc1c[nH]cn1)C(=O)N1CCC[C@H]1C(=O)NCC(N)=O [ZElan054, H2N—K(dns)TRKSSrSNPRGrRHPG—CONH2] (H-K(Dansyl)TRKSS[dR]SNPRG[dR]RHPG-NH2)
- inhibition of GST-P31 binding (fixed Caco-2 cells [1]): inhibited
- Rel. Stab. [2]: 2
- remaining at 1 min, 1 mg/ml [2]: 97.4%
- remaining at 1 h, 1 mg/ml [2]: 58.2%
- remaining at 3 h, 1 mg/ml [2]: 11.6%
- remaining at 24 h, 1 mg/ml [2]: 2.7%

Compound: H-K(Dansyl)SEANLDGRKSRYSSPRRNSSTRPRTSPNSVHARYPSTDHD-NH2 [ZElan026, reference compound]
- inhibition of GST-HAX42 binding (fixed Caco-2 cells [1]): inhibited

Compound: H-K(Dansyl)SRANTDGRKSRYSSPRRNSSTEPRLSPNSVHARYPSTDHD-NH2 [ZElan038, reference compound]
- inhibition of GST-HAX42 binding (fixed Caco-2 cells [1]): inhibited

Compound: RVGQCTDSDVRRPWARSCAHQGCGAGTRNSHGCITRPLRQASAH [Phage SNi10]
- found in the intestine samples or fractions (intestinal tissue; hSI pool of phages): found in the intestine samples or fractions

Compound: STPPSREAYSRPYSVDSDSDTNAKHSSHNRRLRTRSRPN [PAX2]
- binding to the intestine / found in the intestine samples (intestinal tissue; hPEPT1 pool of phages): not found in the intestine samples
- pI [4]: 11.26

Compound: gst-ENANTRKSSRSNPRGRRHP [GST-P31.103]
- binding of truncation to fixed Caco-2 cells relative to full-length fusion [5]: bound almost as well as full-length P31
- effect of thrombin cleavage on detection of binding (fixed Caco-2 cells [6]): significantly reduced detection of binding

Compound: gst-RGSTGTAGGERSGVLNLHTRDNASGSGFKPWYPSNRGHK [GST-5PAX5]
- binding to fixed Caco-2 or C2BBe1 cells relative to GST control [5]: weak to moderate binding

Compound: gst-RRLRTRSRPN [GST-115]
- Value (binding to P100 as ratio of GST-HAX42 binding) [7]: 0.36

Compound: gst-RVGQCTDSDVRRPWARSCAHQGCGAGTRNSHGCITRPLRQASAH [GST-SNi10]
- binding to fixed Caco-2 or C2BBe1 cells relative to GST control [5]: bound fixed Caco-2 or C2BBe1 cells
- effect of thrombin cleavage on detection of binding (fixed Caco-2 cells [6]): significantly reduced detection of binding

Compound: gst-SPCGGGSWGRFMQGGLFGGRTDGCGAHRNRTSASLEPPSSDY [GST-SNi34]
- binding to fixed Caco-2 or C2BBe1 cells relative to GST control [5]: bound fixed Caco-2 or C2BBe1 cells

Compound: gst-SRPYSVDSDSDTNAKHSSHNR [GST-105]
- Value (binding to P100 as ratio of GST-HAX42 binding) [7]: −0.08

Compound: gst-SSHNRRLRTR [GST-114]
- Value (binding to P100 as ratio of GST-HAX42 binding) [7]: 0.17

Compound: gst-STPPSREAYSRPYSVDSDSD [GST-104]
- Value (binding to P100 as ratio of GST-HAX42 binding) [7]: 0.01

Compound: gst-TNAKHSSHN [GST-113]
- Value (binding to P100 as ratio of GST-HAX42 binding) [7]: 0.26
